According to patent US9932338B2, “Compounds having muscarinic receptor antagonist and BETA2 adrenergic receptor agonist activity” (CHIESI FARMACEUTICI S.P.A., priority 2015, dated 2018):

Key:
Human β2 adrenoceptor = target: T1, Human β2 adrenoceptor (Homo sapiens, UniProt P07550); test: β2 adrenoceptor radioligand binding assay; details: human β2 adrenoceptor membranes, 125-I cyanopindolol; Ki from IC50 by Cheng and Prusoff; read-out: B2 binding affinity (Ki class)
T1 construct: purchased Perkin Elmer
T1 sequence (P07550 whole entry): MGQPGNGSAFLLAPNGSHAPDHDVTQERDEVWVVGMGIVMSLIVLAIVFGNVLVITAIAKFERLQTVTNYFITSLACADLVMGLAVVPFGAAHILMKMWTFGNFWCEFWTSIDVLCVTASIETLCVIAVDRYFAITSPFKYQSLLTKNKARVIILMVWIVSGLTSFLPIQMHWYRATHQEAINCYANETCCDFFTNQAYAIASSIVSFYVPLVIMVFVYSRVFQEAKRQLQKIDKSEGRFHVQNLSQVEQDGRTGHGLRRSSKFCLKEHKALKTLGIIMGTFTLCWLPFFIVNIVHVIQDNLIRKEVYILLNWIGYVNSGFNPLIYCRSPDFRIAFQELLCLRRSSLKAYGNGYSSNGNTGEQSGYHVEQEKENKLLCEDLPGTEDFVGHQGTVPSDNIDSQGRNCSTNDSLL
Experimental: Example. β2 Adrenoceptor Radioligand Binding Assay
Human β2 adrenoceptor membranes (7.5 ug/well) from Perkin Elmer were incubated with 0.3 nM 125-I Cyanopindolol with or without test compounds, or a saturating concentration of s-propranolol (2 μM) for the determination of non-specific binding. The assay was carried out in 96-well polypropylene plates in a volume of 200 ul. The assay buffer used was 25 mM HEPES, 0.5% BSA (w/v), 1 mM EDTA, 0.02% ascorbic acid (v/v), (pH 7.4). The final assay concentration of DMSO was 0.5% (v/v). The plates were sealed and incubated for 1 hour at room temperature on an orbital shaker (slow speed). Membranes were harvested onto 96-well unifilter GF/C filter plates pre-treated with 0.5% polyethyleneimine (v/v), using a filter manifold, washed six times with 200 μl of wash buffer containing 10 mM HEPES and 500 mM NaCl. The plates were dried before addition of 50 μl of microscint-0, sealed then read in a Trilux Microbeta scintillation counter. IC50 values are determined from competition curves using a non-linear curve fitting program. Ki values were calculated from IC50 values by the Cheng and Prusoff equation.

Human M3 receptor = target: T2, Human M3 receptor (Homo sapiens, UniProt P20309); test: M3 receptor radioligand binding assay; details: human M3 receptor membranes, [N-methyl-3H] scopolamine methyl chloride; Ki from IC50 by Cheng and Prusoff; read-out: M3 binding affinity (Ki class)
T2 construct: purchased Perkin Elmer
T2 sequence (P20309 whole entry): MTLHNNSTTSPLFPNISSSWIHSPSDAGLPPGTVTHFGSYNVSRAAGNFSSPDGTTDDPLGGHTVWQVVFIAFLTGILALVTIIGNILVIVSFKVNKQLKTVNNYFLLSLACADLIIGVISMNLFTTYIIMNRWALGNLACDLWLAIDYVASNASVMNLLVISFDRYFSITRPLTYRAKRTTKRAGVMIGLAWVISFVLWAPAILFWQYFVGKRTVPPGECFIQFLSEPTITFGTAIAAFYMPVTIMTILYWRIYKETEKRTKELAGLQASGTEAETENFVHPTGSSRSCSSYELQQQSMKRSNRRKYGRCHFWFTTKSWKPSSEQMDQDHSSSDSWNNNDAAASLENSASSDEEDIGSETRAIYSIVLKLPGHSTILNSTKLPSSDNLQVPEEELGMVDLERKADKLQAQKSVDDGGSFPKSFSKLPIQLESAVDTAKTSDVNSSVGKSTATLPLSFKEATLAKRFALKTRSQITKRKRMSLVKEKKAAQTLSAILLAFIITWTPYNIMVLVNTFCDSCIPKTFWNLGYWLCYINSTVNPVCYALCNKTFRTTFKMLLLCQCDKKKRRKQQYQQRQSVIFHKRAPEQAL
Experimental: Example. M3 Receptor Radioligand Binding Assay
The assay was carried out in 96-well polypropylene plates in a volume of 250 ul. […] The final assay concentration of DMSO was 0.5% (v/v). The plates were sealed and incubated for 2 hours at room temperature on an orbital shaker (slow speed). Membranes were harvested onto 96-well unifilter GF/C filter plates pre-treated with 0.5% polyethyleneimine (v/v), using a filter manifold, washed four times with 200 μl of assay buffer. The plates were dried before addition of 50 μl of microscint-0, sealed then read in a Trilux Microbeta scintillation counter. IC50 values are determined from competition curves using a non-linear curve fitting program. Ki values were calculated from IC50 values by the Cheng and Prusoff equation.

SMILES | Ki (Human β2 adrenoceptor) [nM] | Ki (Human M3 receptor) [nM]
O=C(NCCCCNC[C@H](O)c1ccc(O)c2[nH]c(=O)ccc12)c1ccc(CNC2(C(=O)O[C@H]3CN4CCC3CC4)CCc3ccccc32)s1 (stereo partly drawn) [Compound 4, (R)-quinuclidin-3-yl 1-(((5-((4-(((R)-2-hydroxy-2-(8-hydroxy-2-oxo-1,2-dihydroquinolin-5-yl)ethyl)amino)butyl)carbamoyl)thiophen-2-yl)methyl)amino)-2,3-dihydro-1H-indene-1-carboxylate] | < 1 | < 1
O=C(O[C@H]1CN2CCC1CC2)C1(NCc2cccc(OCCCCCNC[C@H](O)c3ccc(O)c4[nH]c(=O)ccc34)c2)CCc2ccccc21 (stereo partly drawn) [Compound 3, (R)-quinuclidin-3-yl 1-((3-((5-(((R)-2-hydroxy-2-(8-hydroxy-2-oxo-1,2-dihydroquinolin-5-yl)ethyl)amino)pentyl)oxy)benzyl)amino)-2,3-dihydro-1H-indene-1-carboxylate] | < 1 | < 1
O=C(NCCCCNC[C@H](O)c1ccc(O)c2[nH]c(=O)ccc12)c1ccc(CNC2(C(=O)OCC3CCN(Cc4ccccc4)CC3)CCc3ccccc32)s1 (single isomer, unassigned; stereoisomer 1) [Compound 22] | 1 to 10 | < 1
O=C(NCCCCNC[C@H](O)c1ccc(O)c2[nH]c(=O)ccc12)c1ccc(CNC2(C(=O)O[C@H]3CN4CCC3CC4)Cc3ccccc3C2)s1 [Compound 14, (R)-quinuclidin-3-yl 2-(((5-((4-(((R)-2-hydroxy-2-(8-hydroxy-2-oxo-1,2-dihydroquinolin-5-yl)ethyl)amino)butyl)carbamoyl)thiophen-2-yl)methyl)amino)-2,3-dihydro-1H-indene-2-carboxylate] | 1 to 10 | < 1
O=C(NCCCCNC[C@H](O)c1ccc(O)c2[nH]c(=O)ccc12)c1cccc(CNC2(C(=O)O[C@H]3CN4CCC3CC4)CCc3ccccc32)c1 (stereo partly drawn) [Compound 1, (R)-quinuclidin-3-yl 1-((3-((4-(((R)-2-hydroxy-2-(8-hydroxy-2-oxo-1,2-dihydroquinolin-5-yl)ethyl)amino)butyl)carbamoyl)benzyl)amino)-2,3-dihydro-1H-indene-1-carboxylate] | < 1 | < 1
O=C(NC1(C(=O)O[C@H]2CN3CCC2CC3)CCc2ccccc21)c1ccc(OCc2ccc(CNC[C@H](O)c3ccc(O)c4[nH]c(=O)ccc34)cc2)cc1 (stereo partly drawn) [Compound 19, (R)-quinuclidin-3-yl 1-(4-((4-((((R)-2-hydroxy-2-(8-hydroxy-2-oxo-1,2-dihydroquinolin-5-yl)ethyl)amino)methyl)benzyl)oxy)benzamido)-2,3-dihydro-1H-indene-1-carboxylate] | > 10 | 1 to 10
O=C(Cc1ccc(CC(=O)NC2(C(=O)O[C@H]3CN4CCC3CC4)CCc3ccccc32)cc1)Nc1ccc(CNC[C@H](O)c2ccc(O)c3[nH]c(=O)ccc23)cc1 (stereo partly drawn) [Compound 18, (R)-quinuclidin-3-yl 1-(2-(4-(2-((4-((((R)-2-hydroxy-2-(8-hydroxy-2-oxo-1,2-dihydroquinolin-5-yl)ethyl)amino)methyl)phenyl)amino)-2-oxoethyl)phenyl)acetamido)-2,3-dihydro-1H-indene-1-carboxylate] | > 10 | 1 to 10
O=C(O[C@H]1CN2CCC1CC2)C1(NCc2cccc(OCc3ccc(CNC[C@H](O)c4ccc(O)c5[nH]c(=O)ccc45)cc3)c2)CCc2ccccc21 (stereo partly drawn) [Compound 20, (R)-quinuclidin-3-yl 1-((3-((4-((((R)-2-hydroxy-2-(8-hydroxy-2-oxo-1,2-dihydroquinolin-5-yl)ethyl)amino)methyl)benzyl)oxy)benzyl)amino)-2,3-dihydro-1H-indene-1-carboxylate] | < 1 | 1 to 10
O=C(NCCCCNC[C@H](O)c1ccc(O)c2[nH]c(=O)ccc12)c1ccc(CNC2(C(=O)OCC3CCN(Cc4ccccc4)CC3)CCc3ccccc32)s1 (single isomer, unassigned; stereoisomer 2) [Compound 23] | 1 to 10 | < 1
O=C(NCCCCNC[C@H](O)c1ccc(O)c2[nH]c(=O)ccc12)c1ccc(CNC2(C(=O)O[C@@H]3CCN(Cc4ccccc4)C3)CCc3ccccc32)s1 (single isomer, unassigned; stereoisomer 1) [Compound 26] | > 10 | > 10
